Values joined by “and” are separate entries in the source; they are usually repeats but may differ in a detail not shown here. Equal entries are not always repeated.
Tested on: 156681-154-R-J1 tumor spheroid viability
Test: Anticancer human tumor 156681-154-R-J1 patient-derived melanoma cell line growth inhibition
Settings: spheroids with HUVEC and MSC; for viability, T/C: stronger effect = lower value
In short: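 Single agents and combinations were tested on spheroids built from tumor cells plus HUVEC and hMSC, at half-log dilutions starting at or near clinical Cmax, else 10 microM; final DMSO 0.25% (v/v).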

[1] = curve of first compound, second compound 0.003 µM
[2] = curve of first compound, second compound 0.00949 µM
[3] = curve of first compound, second compound 0.03 µM
[4] = curve of first compound, second compound 0.0949 µM
[5] = curve of first compound, second compound 0.3 µM
[6] = second compound 0.003 µM, first compound 0.00949 µM
[7] = second compound 0.003 µM, first compound 0.03 µM
[8] = second compound 0.003 µM, first compound 0.0949 µM
[9] = second compound 0.003 µM, first compound 0.3 µM
[10] = second compound 0.003 µM, first compound 0.949 µM
[11] = second compound 0.003 µM, first compound 3 µM
[12] = second compound 0.00949 µM, first compound 0.00949 µM
[13] = second compound 0.00949 µM, first compound 0.03 µM
[14] = second compound 0.00949 µM, first compound 0.0949 µM
[15] = second compound 0.00949 µM, first compound 0.3 µM
[16] = second compound 0.00949 µM, first compound 0.949 µM
[17] = second compound 0.00949 µM, first compound 3 µM
[18] = second compound 0.03 µM, first compound 0.00949 µM
[19] = second compound 0.03 µM, first compound 0.03 µM
[20] = second compound 0.03 µM, first compound 0.0949 µM
[21] = second compound 0.03 µM, first compound 0.3 µM
[22] = second compound 0.03 µM, first compound 0.949 µM
[23] = second compound 0.03 µM, first compound 3 µM
[24] = second compound 0.0949 µM, first compound 0.00949 µM
[25] = second compound 0.0949 µM, first compound 0.03 µM
[26] = second compound 0.0949 µM, first compound 0.0949 µM
[27] = second compound 0.0949 µM, first compound 0.3 µM
[28] = second compound 0.0949 µM, first compound 0.949 µM
[29] = second compound 0.0949 µM, first compound 3 µM
[30] = second compound 0.3 µM, first compound 0.00949 µM
[31] = second compound 0.3 µM, first compound 0.03 µM
[32] = second compound 0.3 µM, first compound 0.0949 µM
[33] = second compound 0.3 µM, first compound 0.3 µM
[34] = second compound 0.3 µM, first compound 0.949 µM
[35] = second compound 0.3 µM, first compound 3 µM
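Further: spheroids exposed to compounds for 7 days before readout.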
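Wherever viability, T/C is given: percent of vehicle control viability where 100% = DMSO-treated spheroids.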

Cc1sc2c(c1C)C(c1ccc(Cl)cc1)=NC(CC(=O)Nc1ccc(O)cc1)c1nnc(C)n1-2 (configuration not stated) + CC[C@@]1(O)C(=O)OCc2c1cc1n(c2=O)Cc2cc3c(CN(C)C)c(O)ccc3nc2-1
IC50 [1]: 1460 nM | IC50 [2]: 1960 nM | IC50 [3]: 78.6 nM | IC50 [4]: < 9.49 nM | IC50 [5]: < 9.49 nM | viability, T/C [6]: 155% | viability, T/C [7]: 103% | viability, T/C [8]: 81.1% | viability, T/C [9]: 70% | viability, T/C [10]: 61.1% | viability, T/C [11]: 47.4% | viability, T/C [12]: 68.4% | viability, T/C [13]: 88.6% | viability, T/C [14]: 82.6% | viability, T/C [15]: 75.4% | viability, T/C [16]: 62.4% | viability, T/C [17]: 42.8% | viability, T/C [18]: 50.1% | viability, T/C [19]: 54.9% | viability, T/C [20]: 51.3% | viability, T/C [21]: 39% | viability, T/C [22]: 29.8% | viability, T/C [23]: 19.1% | viability, T/C [24]: 22.5% | viability, T/C [25]: 21.8% | viability, T/C [26]: 21% | viability, T/C [27]: 22.5% | viability, T/C [28]: 24.6% | viability, T/C [29]: 24.4% | viability, T/C [30]: 33.2% | viability, T/C [31]: 29.1% | viability, T/C [32]: 31.1% | viability, T/C [33]: 24.8% | viability, T/C [34]: 25.4% | viability, T/C [35]: 16.5%

CNCc1ccc(-c2cc(-c3nc(-c4ccc(S(=O)(=O)C(C)C)cc4)cnc3N)on2)cc1 + CC[C@@]1(O)C(=O)OCc2c1cc1n(c2=O)Cc2cc3c(CN(C)C)c(O)ccc3nc2-1
IC50 [1]: 733 nM | IC50 [2]: 451 nM | IC50 [3]: 296 nM | IC50 [4]: < 9.49 nM | IC50 [5]: < 9.49 nM | viability, T/C [6]: 103% | viability, T/C [7]: 93.6% | viability, T/C [8]: 82.1% | viability, T/C [9]: 65.2% | viability, T/C [10]: 46.8% | viability, T/C [11]: 20.3% | viability, T/C [12]: 136% | viability, T/C [13]: 92.3% | viability, T/C [14]: 73.8% | viability, T/C [15]: 58.8% | viability, T/C [16]: 46.8% | viability, T/C [17]: 7.92% | viability, T/C [18]: 66% | viability, T/C [19]: 60.1% | viability, T/C [20]: 60.1% | viability, T/C [21]: 50.4% | viability, T/C [22]: 27.5% | viability, T/C [23]: 7.5% | viability, T/C [24]: 17.7% | viability, T/C [25]: 19.3% | viability, T/C [26]: 24.2% | viability, T/C [27]: 14.5% | viability, T/C [28]: 12.8% | viability, T/C [29]: 0.15% | viability, T/C [30]: 31.1% | viability, T/C [31]: 26.9% | viability, T/C [32]: 24.2% | viability, T/C [33]: 24.2% | viability, T/C [34]: 14.8% | viability, T/C [35]: 10%

Cn1ncnc1[C@H]1c2n[nH]c(=O)c3cc(F)cc(c23)N[C@@H]1c1ccc(F)cc1 + CC[C@@]1(O)C(=O)OCc2c1cc1n(c2=O)Cc2cc3c(CN(C)C)c(O)ccc3nc2-1
IC50 [1]: 871 nM | IC50 [2]: 207 nM | IC50 [3]: < 9.49 nM | IC50 [4]: < 9.49 nM | IC50 [5]: < 9.49 nM | viability, T/C [6]: 87.1% | viability, T/C [7]: 102% | viability, T/C [8]: 82.5% | viability, T/C [9]: 77.3% | viability, T/C [10]: 47.8% | viability, T/C [11]: 8.02% | viability, T/C [12]: 58.8% | viability, T/C [13]: 65.9% | viability, T/C [14]: 48.8% | viability, T/C [15]: 50% | viability, T/C [16]: 21.2% | viability, T/C [17]: 9.62% | viability, T/C [18]: 33.5% | viability, T/C [19]: 28.7% | viability, T/C [20]: 22.1% | viability, T/C [21]: 18.2% | viability, T/C [22]: 15.2% | viability, T/C [23]: 6.77% | viability, T/C [24]: 29.5% | viability, T/C [25]: 33.4% | viability, T/C [26]: 32.7% | viability, T/C [27]: 31.2% | viability, T/C [28]: 24.9% | viability, T/C [29]: 10.6% | viability, T/C [30]: 41.8% | viability, T/C [31]: 43.8% | viability, T/C [32]: 47.8% | viability, T/C [33]: 43.3% | viability, T/C [34]: 44% | viability, T/C [35]: 24.6%

Cc1sc2c(c1C)C(c1ccc(Cl)cc1)=NC(CC(=O)Nc1ccc(O)cc1)c1nnc(C)n1-2 (configuration not stated)
viability, T/C (compound 0.00949 µM): 77.1% and 103% and 87% | viability, T/C (compound 0.03 µM): 89.1% and 92% and 94.1% | viability, T/C (compound 0.0949 µM): 83.7% and 95.2% and 98% | viability, T/C (compound 0.3 µM): 70% and 80.3% and 96.3% | viability, T/C (compound 0.949 µM): 70.8% and 58.4% and 64.4% | viability, T/C (compound 3 µM): 38.2% and 42.2% and 73% | IC50 (curve of compound): 1920 nM and 1730 nM and > 3000 nM

CC(C)n1c(=O)n(C)c2cnc3cc(F)c(-c4ccc(OCCCN5CCCCC5)nc4)cc3c21 + COc1cc2c(cc1O)CCNC21CSC2c3c(OC(C)=O)c(C)c4c(c3C(COC1=O)N1C(O)C3Cc5cc(C)c(OC)c(O)c5C(C21)N3C)OCO4
IC50 (curve of first compound, second compound 30 pM): > 10000 nM | IC50 (curve of first compound, second compound 94.9 pM): > 10000 nM | IC50 (curve of first compound, second compound 0.0003 µM): 4750 nM | IC50 (curve of first compound, second compound 0.000949 µM): < 31.6 nM | IC50 [1]: < 31.6 nM | viability, T/C (second compound 30 pM, first compound 0.0316 µM): 101% | viability, T/C (second compound 30 pM, first compound 0.1 µM): 120% | viability, T/C (second compound 30 pM, first compound 0.316 µM): 87.2% | viability, T/C (second compound 30 pM, first compound 1 µM): 105% | viability, T/C (second compound 30 pM, first compound 3.16 µM): 104% | viability, T/C (second compound 30 pM, first compound 10 µM): 90.3% | viability, T/C (second compound 94.9 pM, first compound 0.0316 µM): 106% | viability, T/C (second compound 94.9 pM, first compound 0.1 µM): 91.1% | viability, T/C (second compound 94.9 pM, first compound 0.316 µM): 103% | viability, T/C (second compound 94.9 pM, first compound 1 µM): 95% | viability, T/C (second compound 94.9 pM, first compound 3.16 µM): 108% | viability, T/C (second compound 94.9 pM, first compound 10 µM): 73.5% | viability, T/C (second compound 0.0003 µM, first compound 0.0316 µM): 66.9% | viability, T/C (second compound 0.0003 µM, first compound 0.1 µM): 63.5% | viability, T/C (second compound 0.0003 µM, first compound 0.316 µM): 61.7% | viability, T/C (second compound 0.0003 µM, first compound 1 µM): 65.7% | viability, T/C (second compound 0.0003 µM, first compound 3.16 µM): 85.7% | viability, T/C (second compound 0.0003 µM, first compound 10 µM): 15.9% | viability, T/C (second compound 0.000949 µM, first compound 0.0316 µM): 6.13% | viability, T/C (second compound 0.000949 µM, first compound 0.1 µM): 2.85% | viability, T/C (second compound 0.000949 µM, first compound 0.316 µM): 4.29% | viability, T/C (second compound 0.000949 µM, first compound 1 µM): 3.82% | viability, T/C (second compound 0.000949 µM, first compound 3.16 µM): 4.41% | viability, T/C (second compound 0.000949 µM, first compound 10 µM): 0.77% | viability, T/C (second compound 0.003 µM, first compound 0.0316 µM): 0.23% | viability, T/C (second compound 0.003 µM, first compound 0.1 µM): 0.23% | viability, T/C (second compound 0.003 µM, first compound 0.316 µM): 0.24% | viability, T/C (second compound 0.003 µM, first compound 1 µM): 0.22% | viability, T/C (second compound 0.003 µM, first compound 3.16 µM): 0.18% | viability, T/C (second compound 0.003 µM, first compound 10 µM): 0.24%

— PubChem BioAssay AID1845195 (Molecular Pharmacology Branch, DTP, NCI, 2023)
